Where two headings read alike, the source gives them in different places.
Assays:
[1] = Body weight gain in C57BU6 mice shifted to a high fat diet, analogs and isomers, 3 days (Example 9); type: in vivo; details: C57BU6 mice on high fat diet, 100 mg/kg twice daily oral gavage
Method: C57BU6 mice were received at 6-7 weeks of age and fed a standard commercial chow for 1 week (acclimation period). The animals were randomized based on their body weight values, into control and treatment groups (n=6). Then, animals were shifted to a high fat diet (60% of calories from fat) and treated twice daily by oral gavage with 4-hydroxyisoleucine (4-OH, compound 14a) or different analogs and isomers of 4-OH at the dose of 100 mg per kg of body weight for 3 days. The control group (Control HFD) received vehicle (water) alone and a group was kept under standard chow (Control Lean). Body weight of the mice was recorded daily. Two different experiments were run and the effect on body weight gain of selected analogs and isomers according to the invention is presented in FIG. 22A (Experiment 1) and FIG. 22B (Experiment 2).

[2] = Oral Glucose Tolerance Test (OGTT) in DIO mice, 4-hydroxyisoleucine and Exendin-4 alone or in combination (Example 5); type: in vivo, C57BI/6 mice; details: single agent, 4-OH 50 mg/kg or Exendin-4 0.01 mg/kg, after 7, 14 and 21 days of treatment
Method: Glycemic response was monitored by an Oral Glucose Tolerance Test (OGTT) performed on days 0, 7, 14, and 21 of treatment.
A total of 56 animals were used in the study. The animals were distributed into 7 groups (5 treated, 1 normal diet control, and 1 high fat diet control group). Each group was composed of 8 animals. […] For the three weeks of treatment, the test agents were dissolved in sterile saline for injection (USP). 4-Hydroxyisoleucine was kept at 4° C. (administration to groups 3, 4, and 7) while a frozen aliquot of Exendin-4 was thawed each dosing day for administration to groups 5, 6, and 7. Control animals received sterile saline, twice daily (groups 1 and 2). […] Animals from groups 5 and 6 received sterile saline as the AM treatment, while the PM treatment consisted of 0.05 and 0.01 mg/kg of Exendin-4, respectively. For Group 7, the AM treatment consisted of 50 mg/kg 4-OH only, while the PM treatment consisted of 0.01 mg/kg of Exendin-4+50 mg/kg of 4-OH. All groups were treated by subcutaneous injection.
On days 0, 7, 14, and 21, animals fasted for approximately 5 hours were challenged with an Oral Glucose Tolerance Test (OGTT) at 5 hours post-AM test agent administration. Whole blood glucose levels were monitored using a hand-held glucometer prior to OGTT and for up to 2 hours post-glucose challenge.

[3] = Body weight of DIO mice, 4-hydroxyisoleucine and metformin alone and in combination (Example 6); type: in vivo, C57BU6 mice
Method: C57BU6 mice were received at 7-8 weeks of age and fed a high fat diet (60% of calories from fat) for 8 weeks. Fasted glycemia was checked and animals with readings between 200 and 220 mg/dL were included in the study. The animals were randomized based on their body weights and glycemia values into control and treatment groups (n=8). […] The control group received vehicle (water) alone. The animals were treated for 21 days. Body weight of the mice was measured on the first day of treatment and on days 3, 7, 10, 14, 17, and 21. All data are expressed as mean±SEM.

[4] = DIO mice
Excerpt: (§1) The objective of this study was to evaluate the effect of chronic administration of 4-hydroxyisoleucine (4-OH, compound 14a) and Rosiglitazone, administered alone or in combination, on food consumption and body weight gain of DIO-mice. Both parameters were monitored for 1 week prior to the commencement of treatment, then for the 28 days of treatment and for an additional 7 days post-treatment.
(§2) A total of 72 animals were used in the study. The animals were distributed into 6 groups (5 treated, 1 control group, all on high fat diet). Each group was composed of 12 animals. The mice were randomized according to body weight and basal glycemia values following a 5±0.5 hour fasting period.
For the four weeks of treatment, the test articles were dissolved in reverse osmosis water. 4-Hydroxyisoleucine was aliquoted and kept at 4° C. (administration to groups 2, 3, and 6), while Rosiglitazone was freshly prepared daily and kept at 4° C. between the AM and PM administration to groups 4, 5, and 6. Control animals received reverse osmosis water twice daily (group 1). Mice from groups 2 and 3 were treated twice daily with 4-OH at 50 and 100 mg/kg, respectively. Animals from groups 4 and 5 received 1.5 and 5 mg/kg of Rosiglitazone, respectively. […] All groups were treated by oral gavage. Treatment commenced on Day 0 and ended on Day 28 (FIGS. 17A and 17C).
Food consumption was measured and averaged on a weekly basis beginning one week before the start of treatment as shown in FIGS. 17B and 17D as week −1. Similarly, food consumption was monitored for one week after treatment was stopped and is shown as week 5 in FIGS. 17B and 17D. In FIG. 17B, the food consumption over time for various treatment groups is illustrated by the bar graph.

[5] = type: in vivo
Excerpt: as §1, with “14a)” for “14a) and Rosiglitazone, administered alone or in combination,”, “77” for “28”, “12” for “7”
as §2, with “C57BL/6 mice were received at 7-8 weeks of age and fed a high fat diet (60% of calories from fat) for several weeks. A” for “A”, “32” for “72”, “4” for “6”, “(3” for “(5”, “8” for “12”
The test agent was dissolved in reverse osmosis water. 4-Hydroxyisoleucine was aliquoted and kept at 4° C. Control animals received reverse osmosis water twice daily (group 1). Mice from groups 2, 3 and 4 were treated twice daily with 4-hydroxyisoleucine (4-OH, compound 14a) at 100, 50, and 25 mg/kg, respectively. All groups were treated by oral gavage. Treatment commenced on Day 0 and ended on Day 77. Food consumption was measured daily and averaged on a weekly basis beginning one week before the start of treatment as shown in FIG. 15B. Similarly, food consumption was monitored during the treatment period and for 12 days after treatment was stopped as shown in FIGS. 15A and 15B.

[6] = 4-OH 50 or 100 mg/kg twice daily

Structure (SMILES): C[C@@H]([C@H](C)O)[C@H](N)C(=O)O [compound 14a, (2S,3R,4S)-4-Hydroxyisoleucine]
- body weight as compared to pre-treatment values (FIG. 22B, one experiment) [1]: reduced body weight of the mice as compared to pre-treatment values
- body weight gain induced by the high fat diet [1]: reduced body weight gain induced by the high fat diet
- glycemic levels following OGTT challenge [2]: consistently effective at reducing glycemic levels
- body weight as compared to vehicle-treated mice ([3]; DIO mice, 100 mg/kg twice daily oral, 21 days, only 4-OH significant (p<0.01 4-OH, p=0.27 metformin)): reduction of their body weight
- body weight compared to control DIO mice, given alone ([3]; DIO mice, 4-OH 50 mg/kg or metformin 25 mg/kg twice daily oral, 21 days): no significant effect on body weight
- efficacy in reducing body weight relative to metformin ([3]; DIO mouse model, conclusion of the study): as effective as mefformin
- weight gain induced by Rosiglitazone ([4]; 4-OH 50 mg/kg co-administered with Rosiglitazone 1.5 mg/kg): able to modulate the weight gain induced by Rosiglitazone
- food consumption (FIG. 17D) ([4]; 4-OH 50 mg/kg, Rosiglitazone 1.5 mg/kg, or the two co-administered): reduction in food consumption during the first week, but not after
- weight gain ([4]; 4-OH 100 mg/kg twice daily oral, 28 days): Moderation of weight gain
- food consumption, first week of treatment (FIG. 17B) [4, 6]: decreased
- food consumption, remainder of the treatment phase (FIG. 17B) [4, 6]: returned to pre-treatment levels
- effect on weight gain ([5]; DIO mice, 100 mg/kg twice daily oral, Day 28 to Day 84): sustained and highly significant
- tolerability of treatments ([5]; DIO mice, 25, 50 and 100 mg/kg twice daily, oral gavage, 77 days): well-tolerated
- weight gain ([5]; DIO mice, 50 and 100 mg/kg twice daily oral, first three weeks of treatment): moderation of weight gain
- food consumption ([5]; DIO mice, during the first week of treatment, paralleling the reduction in body weight gain): slight decrease in food consumption
- body weight gain and food consumption after cessation of treatment ([5]; DIO mice, first week following cessation of treatment with 100 mg/kg): increase

Reference: patent US20060223884A1, “Compounds and compositions for use in the prevention and treatment of obesity and related syndromes” (priority 2005, published 2006)
